The source of these data is patent US20200010910A1, “Cytotoxic Chemotherapy-Based Predictive Assays for Acute Myeloid Leukemia” (The Regents of The University of California, priority 2017, published 2020).

One may read the IC50 as the point on the concentration scale where inhibition reaches its midpoint.

The test system of series [1] is A549. The experiment in a line: MTT assay IC50. It is filed as cell-based, human. On the procedure: (§1) Six non-small cell lung cancer (NSCLC) cell lines were treated in culture with [^14C]carboplatin. Carboplatin-DNA monoadduct levels over time were determined by measuring ^14C content in genomic DNA with accelerator mass spectrometry (AMS). Cellular sensitivity to carboplatin and cisplatin was analyzed by the MTT assay (Henderson et al., International Journal of Cancer 2011).
(§2) Human NSCLC cell lines H23, H460, H727, HCC827, H1975, and A549 were purchased from ATCC and were cultured with the recommended medium. The MTT assay was performed as previously reported to determine the drug concentration required to inhibit cell growth by 50% (IC50) of cisplatin and carboplatin. [^14C]Carboplatin (at 53 mCi/mmol) was mixed with unlabeled carboplatin to achieve the specific activities required for microdoses and therapeutic doses. Table 1 lists the six NSCLC cell lines and summarizes their IC50 characteristics, induced carboplatin-DNA monoadducts when treated with [^14C]carboplatin, and p and r^2 values for correlation analysis to the IC50 concentrations.

Series [2] concerns H1975. In words: MTT assay IC50. It is filed as cell-based, human. How it is done:
as §1, §2
Background: Tetrazolium dyes change colour on reduction, which living cells bring about.

In series [3] the test system is H23. The experiment in a line: MTT assay IC50. The format is cell-based, human. How it is done: as §1, §2
Series [4] relates to H460. In words: MTT assay IC50. It is filed as cell-based, human. How it is done: as §1, §2
The test system of series [5] is H727. The experiment in a line: MTT assay IC50. The format is cell-based, human. How it is done:
as §1, §2

In series [6] the test system is HCC827. In words: MTT assay IC50. It is filed as cell-based, human. How it is done: as §1, §2
In series [7] the test system is A549, H1975 and HCC827. The experiment in a line: carboplatin-DNA monoadducts by AMS, average of resistant NSCLC lines. It is filed as cell-based, human. The settings on record: three resistant cell lines. On the procedure:
NSCLC cell lines were cultured to >90% confluence, dosed with [^14C]carboplatin, and subjected to DNA isolation and AMS analysis. 60 mm dishes were seeded at a density of 1×10^6 cells/dish and allowed to attach overnight in a 37° C. humidified atmosphere containing 5% CO2. At hour 0, cells were dosed with 1 μM (relevant microdose concentration) or 100 μM carboplatin (therapeutically relevant concentration), each comprising 0.3 μM [^14C]carboplatin (50,000 dpm/ml). Cells were incubated with [^14C]carboplatin for 4 h before washing and cultured with carboplatin-free medium to mimic the in vivo carboplatin half-life (1.3-6 hours) in patients. DNA was harvested from the cell lines at hours 0, 2, 4, 8 and 24 hours after initial dosing. Ten micrograms of DNA per sample was converted to graphite and measured by AMS for ^14C/total C quantification. Triplicate sets of AMS experiments were performed for each cell line and time point. The 14C/total C ratio was converted to 14C atoms per DNA base-pair according to the algorithm described herein to provide values of carboplatin-DNA monoadducts per 10^8 nucleotides. The data was plotted as carboplatin-DNA monoadducts per 10^8 nucleotide (nt) vs time (FIGS. 8A and 8B). There was a time-dependent increase in the carboplatin-DNA monoadduct concentration during the first 4 hours of incubation with therapeutic or microdosing carboplatin (FIGS. 8A and 8B). […]

Series [8] concerns A549 tumor xenografts. The experiment in a line: DNA repair: monoadducts remaining in excised xenograft tumor. The format is in vivo, mice. The conditions noted are these: tumor excised 4 h after microdose, 8 hours in carboplatin-free medium. On the procedure: (§3) DNA repair rates in the xenograft tumor cells were also observed to correlate with carboplatin resistance. This is exemplified by the measurement of DNA repair in the A549 and H232A tumor xenografts (FIG. 10D). Four hours after a microdose was administered to three mice each with A549 and H232A tumor xenografts, the animals were sacrificed and tumors were excised. Tissue from each tumor was minced with a scalpel and washed with PBS. Half of the sample was frozen immediately (control) and half was incubated in cell culture medium (no carboplatin) for 8 hours prior to storage. DNA was extracted from the two sets of experiments and analyzed for carboplatin-DNA monoadducts. The resistant A549 cell line had 4±3% of the carboplatin-DNA monoadducts remaining compared to the control, whereas 56±8% of the monoadducts persisted for the drug sensitive H23 cells.

Series [9] relates to H232A tumor xenografts. The series is described as above. The settings on record: H23; tumor excised 4 h after microdose, 8 hours in carboplatin-free medium. The format is in vivo, mice. How it is done: as §3
A short description of series [10]: human plasma pharmacokinetics of [14C]carboplatin. The format is in vivo. On the procedure:
Two of the bladder cancer patients received two doses of [^14C]carboplatin, including the initial diagnostic microdose and a second microdose at the time of full therapeutic dose. This allowed us to compare the pharmacokinetics of carboplatin in plasma after both microdosing and therapeutic dosing (FIG. 11A). […] Therefore, microdosing and therapeutic dosing yield similar carboplatin pharmacokinetics in human patients.
The pharmacokinetics of carboplatin administered as a microdose was assessed in four patients (two with bladder cancer and two with NSLC) for the purpose of comparing interpatient variability and establishing the optimum time point for tumor biopsy sample acquisition.

The conditions of series [11]: sterile solution in water.
Protocol: Radiolabeled carboplatin containing C^14 carbon atoms in the cyclobutane dicarboxylic acid group was formulated for human use as a sterile, pyrogen free solution at 5 mg/mL in water.

As for `N.N.O=C([O-])C1(C(=O)[O-])CCC1.[Pt+2]` [carboplatin], the IC50 worked out at 196 µM in series [1]; 88.5 ± 30.8 µM in [2]; 19.4 ± 8.65 µM in series [3]; 22 ± 5.23 µM in [4]; 53.5 ± 3.65 µM in [5]; 86.2 ± 10.9 µM in series [6]. The “average area under curve (AUC) of carboplatin-DNA monoadducts” value in series [7] (microdosing) is 43.36±9.55 hr-monoadducts per 10^8 nt; in series [7] (therapeutic dosing), 3916.7±1280.0 hr-monoadducts per 10^8 nt. In addition, the “carboplatin-DNA monoadducts remaining compared to the control” value in [8] came out at 4±3%; in series [9], 56±8%. The plasma half-life entry in series [10] (microdose, four patients) was “a few hours”. In addition, the “time to essential clearance from the blood” value in series [10] (microdose, four patients) was at most 24 h. In addition, the “difference in plasma elimination kinetics between therapeutic and microdoses” value in series [10] (two bladder cancer patients, 24 h) is recorded as “less than 2 fold”. The “loss of radiopurity per year” value in series [11] (storage at −20° C.) is on record as below 2%. Besides, the stability to freeze/thaw result in [11] (upon freezing) is on record as “no observed precipitation”.
